{"source": "patent US20050239873A1", "about": "(priority 1999, published 2005)", "key": {"[1]": {"assay": "Stability in cell culture", "assay_type": "in vitro ADME", "conditions": "HL-60 and RPMI-8226 cultures, 500 ng/ml", "experimental": "HL60 and RPMI-8226 cells were maintained in cell culture medium in the presence or absence of 20% fetal bovine serum. 2-OMeA1 (500 ng/ml) was added to a culture containing 200,000 cells/ml, and to another flask containing only the medium. From the flasks, portions were removed at various times and, as appropriate, centrifuged to collect cells. Samples of cell-free medium, to which NaF/EDTA was added, were extracted. Collected cells were suspended in phosphate-buffered saline (PBS) containing NaF/EDTA, subjected to sonication, and then extracted and analyzed."}, "Bcl-xL(ΔC) WT": {"target": "T1, Bcl-xL(ΔC) WT (Homo sapiens, UniProt Q07817)", "T1 construct": "inferred from Ni-NTA purification and the pET22b(+) NdeI/XhoI cloning); made in house; host or cells: Escherichia coli BL21(DE3) carrying pUB520", "T1 sequence (Q07817 1-211 limits assumed, stated change not applied)": "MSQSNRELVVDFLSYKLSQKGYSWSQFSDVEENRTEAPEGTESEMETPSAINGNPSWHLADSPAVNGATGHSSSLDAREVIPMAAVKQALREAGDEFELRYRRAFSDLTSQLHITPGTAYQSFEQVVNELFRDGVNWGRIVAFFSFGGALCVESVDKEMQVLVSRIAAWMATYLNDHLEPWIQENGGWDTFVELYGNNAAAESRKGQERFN", "assay": "Pore-forming activity, calcein release from liposomes", "assay_type": "biochemical", "outline": "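Bcl-xL(ΔC) protein (500 nM) was added to calcein-loaded 60:40 DOPC/DOPG LUVs (60 μM lipid) in 100 mM KCl, 10 mM KOAc, pH 5.0. Fluorescence was read at 490/520 nm, with kinetics at 37 °C and dose responses at room temperature. BH3 peptides were preincubated 5 min with protein; release was expressed as % of Triton X-100 lysis.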"}, "[2]": {"tested_on": "mitochondria from TABX2S cells", "assay": "Swelling of isolated mitochondria (absorbance at 540 nm)", "set-up": "species or system murine", "conditions": "2 μg/ml", "from_the_text": "Mitochondrial PT is caused by opening of a large conductance channel in the inner mitochondrial membrane. Opening of a large conductance channel allows free distribution of solutes of less than 1,500 Da and results in dissipation of the proton gradient and osmotic swelling of mitochondria due to the higher solute concentration in the matrix. In isolated mitochondria, the colloid osmotic swelling associated with PT pore opening can be followed by measuring the optical density change at 540 nm (Kantrow et al., Biochem. Biophy. Res. Comm. 232:669-671, 1997).\nBriefly, mitochondria were isolated from TABX2S cultured cells by a modification of the procedure of Maltese et al. (J. Biol. Chem. 260:11524-11529, 1985). Typically, 0.5 to 1×10^8 cells were harvested and washed once with homogenization buffer (250 mM sucrose, 10 mM Tris-HCl, 1 mM EDTA and 1 mg/ml BSA, (pH 7.4)). The cell suspension was exposed to nitrogen at 250 psi for 30 minutes in a “cell disruption bomb” (Parr, Moline, Ill.) or homogenized in a Dounce homogenizer with a loose-fitting pestle until >90% of cells were broken. The homogenate was centrifuged at 800×g for 10 minutes. The supernatant was removed and centrifuged at 10,000×g for 10 minutes at 4° C. The pellet was resuspended and again centrifuged at 10,000×g for 10 minutes. […]"}, "NCI-H929": {"tested_on": "NCI-H929", "assay": "Propidium iodide exclusion / flow cytometry cytotoxicity", "assay_type": "cell-based, human", "conditions": "5 to about 20 μg/ml", "experimental": "(§1) Cell survival was assayed by exclusion of propidium iodide (PI; 10 μg/ml) by unfixed cells. Annexin V-FITC (Pharmingen) or 3, 3′-dihexyloxacarbocyanine iodide (DiOC6(3); Molecular Probes) staining was analyzed together with PI to discriminate early apoptotic cells. Apoptotic cells were also measured as sub-G1 events among ethanol-fixed cells stained with 10 μg/ml PI. All cell samples were analyzed using a benchtop FACSCalibur™ (Becton Dickinson, San Jose, Calif.). Flow data were analyzed using MultiCycle AV software (Phoenix Flow Systems). For intracellular pH measurements, cell pellets were washed once and resuspended in 2 ml of HEPES-buffered medium (no phenol red and no serum). Carboxy-SNARF-1-AM (Molecular Probes, 1 mM stock in DMSO, stored at −20° C.) was added to a final concentration of 10 μM, and the cells were incubated for 30 min at 37° C. Following incubation with SNARF, cells were sedimented and the pellets were held on ice. Immediately before analysis, pellets were resuspended in […] (HBSS; experimental buffer) or high-[K+] buffer containing nigericin (calibration samples)."}, "U266": {"tested_on": "U266", "assay": "Propidium iodide exclusion / flow cytometry cytotoxicity", "assay_type": "cell-based, human", "conditions": "5 to about 20 μg/ml", "experimental": "as §1"}, "[3]": {"assay": "Binding to plasma proteins (ultrafiltration)", "assay_type": "in vitro ADME, dog", "conditions": "dog, plasma, presence of NaF+EDTA, read-out: Protein binding, Dog", "experimental": "Solutions of 2-OMe antimycin A3 were diluted with plasma (dog or human) containing NaF+EDTA to final concentrations of 1.0 or 0.2 μg/ml. Controls were diluted with water to the same final concentrations. These preparations were incubated at 37° C. for 20 min, at which time portions were taken and placed in the sample reservoirs of Amicon Centrifree® ultrafiltration systems (Millipore Co., Bedford, Mass.). At 37° C., the filter systems were centrifuged until the reservoirs were dry. From each filtrate, portions were taken for analysis by HPLC. The amounts present were designated as “free drug” (F). The concentrations of the unfiltered solutions were also determined by triplicate analyses. This amount represented the “total drug” concentration (T). The percentage of 2-OMe antimycin A3 bound to plasma proteins was calculated by the following formula: % bound=((T−F)/T)×100\nSimilar experiments were performed for 2-OMe antimycin A3 in dog or rat plasma in the absence of NaF/EDTA."}}, "data": [{"molecule": "CCCCCC[C@H]1C(=O)O[C@H](C)[C@H](NC(=O)c2cccc(NC=O)c2OC)C(=O)O[C@@H](C)[C@@H]1OC(=O)CC(C)C", "note": "[2-OMeA1, 2-methoxy antimycin A1]", "values": [{"measurement": "stability in the medium from cell cultures", "setting": "[1]", "value": "notably less stable in the absence of fetal bovine serum"}, {"measurement": "effect on Bcl-xL pore-forming activity", "setting": "Bcl-xL(ΔC) WT", "value": "inhibited"}]}, {"molecule": "antimycin A", "values": [{"measurement": "mitochondrial swelling", "setting": "[2]", "value": "caused mitochondrial swelling"}, {"measurement": "sensitivity (PI exclusion)", "setting": "NCI-H929", "value": "sensitive"}, {"measurement": "sensitivity (PI exclusion)", "setting": "U266", "value": "sensitive"}]}, {"molecule": "CCCC[C@H]1C(=O)OC(C)[C@H](NC(=O)c2cccc(NC=O)c2OC)C(=O)O[C@@H](C)C1OC(=O)CC(C)C", "note": "(stereo partly drawn) [2-OMeA3, Antimycin A3 methyl ether]", "values": [{"measurement": "fraction unbound at 20 min, 1000 ng/ml", "setting": "[3]", "value": "< 0.01"}]}]}
